Laboratory results taken from patent publication US10316056B2, “Chemical compounds and use thereof for improving muscular quality” (BIOPHYTIS, priority 2014, dated 2019).

Assays:
[1] = rat, in vivo, po
Description: The pharmacokinetics of the compounds were evaluated orally using male Wistar rats (Charles River). […] The novel compounds according to the invention were administered at a dose of 10 mg/kg of body weight in the form of a mixture of 4 to 6 products. After administration, the blood was sampled from the tail at t=0.25 h, 0.5 h, 1 h, 3 h, 6 h and 8 h. The blood samples were centrifuged and the plasmas removed.

[2] = system: myostatin transcript; assay: Mice subjected to a high-fat diet: myostatin transcript of the Soleus muscle; assay type: in vivo, C57BL/6J mice; settings: 5 mg/kg orally; high-fat diet for 6 weeks; FIG. 4
Description: (§1) The 20E as comparative compound and the compounds according to the invention (Nos. 51 and 93) were administered orally, at a dose of 5 mg/kg of body weight, to 12-week-old C57BL/6J mice subjected to a high-fat diet for 6 weeks. The effect of the compounds on the weight and the amount of proteins of the Soleus muscle and also the transcripts of genes involved in myogenesis were evaluated.
In order to carry out the gene expression analysis, the muscle tissues were homogenized in a Trizol solution (500 μl), and the RNAs were extracted and purified using the phenol/chloroform method. An amount of […] of RNA was used as template for the synthesis of the first cDNA strand using oligo (dT)s as primers and the AMV reverse transcriptase enzyme as described by the supplier (Applied Biosystems 4368814). The q-PCRs were then carried out using a 7900HT machine equipped with a rapid system for real-time detection by PCR (Applied Biosystems) and the standard qPCR program (1 cycle of 95° C. for 15 min, 40 cycles of 95° C. for 15 s and 60° C. for 1 min, a 60-95° C. melt curve for the Sybergreen probes). The experiments are carried out in a Sybergreen SYBR master mix (Applied Biosystems) containing the 100 ng cDNA samples and a set of primers which bind to the two different exons and at a final concentration of 200 nM.
(§2) The relative differences in gene expression between treatments are expressed as increase or decrease in the number of cycle times [Ct] compared with the control group, the [Ct] value of each gene having been standardized with the beta-actin gene.
(§3) The in vivo study is carried out by evaluating the effect of 20E as comparative compound and of the molecules according to the invention (Nos. 51 and 93) administered orally, at a dose of 5 mg/kg of body weight, to C57BL/6 mice subjected to a high-fat diet for 6 weeks. The effect of the molecules on the weight and the amount of proteins of the Soleus muscle and also the transcripts of genes involved in myogenesis were evaluated.

[3] = system: S6 kinase (S6K1) phosphorylation in C2C12 cells; assay: Phosphorylation of the S6 kinase in C2C12 cells (ELISA pS6K T389), protein synthesis; assay type: cell-based, mouse; settings: test compounds and 20E reference (10 μM); C2C12, 2 h
Description: After several experiments in which the C2C12 cells differentiated into myotubes were incubated in the presence of IGF-1 or 20E for 2 h 30 or 6 h, two screening tests were developed. Thus, the phosphorylation of the S6 protein kinase and the expression of the myostatin gene were studied in order to determine their modulation by a growth hormone or an ecdysone and to characterize these modulations from a statistical point of view.
The C2C12 myoblast cells (ATCC CRL-1772) are seeded into 6-well plates at a density of 170 000 cells per well and cultured in a DMEM medium containing glucose in a proportion of 4.5 g/l and supplemented with fetal calf serum (10%) and with antibiotics (penicillin and streptomycin). Forty-eight hours later, the myoblasts are induced to differentiate by partial serum depletion (2% instead of 10%) for 5 days. The cells are then placed in a medium which is glucose-depleted (DMEM containing 1 g/l of glucose) and serum-free in the presence of the test molecules or of the references (100 ng/ml IGF-1 or 10 μM 20E) for 2 h. At the end of the experiment, the cells are lysed in a commercial lysis buffer (Invitrogen FNN0011) supplemented with a commercial mixture of anti-proteases (Roche 05056489001). After centrifugation, the cytoplasmic fraction containing the soluble proteins is kept and the protein concentration is determined using a commercial kit (Biorad 500-0114), the principle of which is composed of assaying by the Lowry method. The assaying of the S6 kinase phosphorylation is carried out using a commercial ELISA (Enzyme Linked ImmunoSorbent Assay) kit (Cell signaling 7063). Briefly, 50 μg of protein lysate are deposited in the wells of a 96-well microplate and incubated overnight at 4° C. with the solution of antigen specific for the pS6 kinase threonine 389 antibody. The binding of the antigen to the bottom of the wells is done electrostatically. The solution of antibody to be assayed (pS6K T389) is then incubated at 37° C. in the wells for 2 hours. The antibodies bind specifically to the antigen. The wells are then washed with washing buffer in order to remove the antigen-specific primary antibodies to be assayed which are in excess. The third step consists in binding the detection antibody. The solution of detection antibodies is incubated at 37° C. in the wells for 1 hour. The wells are then washed in order to remove the excess detection antibodies. It should be noted that the detection antibodies are coupled to an enzyme which, in the presence of its substrate, converts it into a reaction product that can be detected and measured by virtue of the appearance of a coloration. […] The appearance of a blue coloration in the substrate indicates the presence of the antibody to be assayed. In order to prevent any saturation phenomenon, a stop solution (generally containing […]) is added and brings about a change in coloration, which goes from blue to yellow. The strength thereof is proportional to the amount of enzyme present and thus to the concentration of antibody sought. The strength of the signal is measured using spectrophotometry at a wavelength of 450 nm.

[4] = system: Myf5 gene transcripts; assay: Mice subjected to a high-fat diet: Myf5 transcripts; assay type: in vivo, C57BL/6J mice; settings: 5 mg/kg orally; high-fat diet for 6 weeks
Description: as §1
(§4) Myogenesis, which is the process for forming muscle tissues, is controlled by several myogenic transcription factors which act as end effectors of the signaling cascade and produce transcripts involved in the various stages of development. The roles of the transcription factors have been described in various journals (Sabourin and Rudnicki 2000 and Le Grand and Rudnicki 2007). The Pax7 protein (Paired-box protein 7) maintains a population of satellite cells in quiescence and, with Myf5 (Myogenic factor 5), plays a role in the expansion of activated myoblasts. The MyoD protein (Myoblast Determination protein) appears to determine the differentiation potential of activated myoblasts, and cooperates with myogenin and the MEF2 (Myocyte Enhancer Factor 2) protein to control and bring about differentiation. Finally, MRF4 (Muscle-specific Regulatory Factor 4) is required for hypertrophy, even though it probably plays other roles. […]
as §2, §3

[5] = system: Soleus muscle of C57BL/6 mice subjected to a high-fat diet; assay: Mice subjected to a high-fat diet: weight and amount of proteins of the Soleus muscle; assay type: in vivo, C57BL/6J mice; settings: 5 mg/kg orally, high-fat diet for 6 weeks, compared with the control group
Description: as §1
The amount of proteins is determined by first lysing the muscles sampled in a 0.1N NaOH solution with the FastPrep technique. The proteins are quantified by means of a colorimetric assay derived from the Lowry method.
as §3

[6] = system: MyoD transcripts; assay: Mice subjected to a high-fat diet: MyoD transcripts of the Soleus muscle; assay type: in vivo, C57BL/6J mice; settings: 5 mg/kg orally; high-fat diet for 6 weeks; FIG. 5A
Description: as §1, §4, §2, §3

[7] = system: myogenin transcripts; assay: Mice subjected to a high-fat diet: myogenin transcripts of the Soleus muscle; assay type: in vivo, C57BL/6J mice; settings: 5 mg/kg orally; high-fat diet for 6 weeks; FIG. 5B
Description: as §1, §4, §2, §3

[8] = system: phosphorylations that activate proteins such as Akt or S6 kinase; settings: could reach; literature, Kazi et al., 2010; cited from earlier work
[9] = system: muscle cells derived from the C2C12 murine line; settings: literature, Kazi et al., 2010; cited from earlier work

| Compound | Cexp (coefficient of exposure) [1] | AUC ([1]; 50 mg/kg) | Cmax ([1]; 50 mg/kg) | Tmax ([1]; 50 mg/kg) | myostatin expression in the Soleus muscle [2] | S6K1 phosphorylation level [3] | transcripts of the Myf5 gene [4] | weight of the Soleus muscle ([5]; FIG. 3A) | amount of proteins of the Soleus muscle ([5]; FIG. 3B) | transcripts of the MyoD gene [6] | transcript of the myogenin gene [7] | stimulation of targets of the signaling pathway [8] | increase in protein synthesis [9] |
| --- | --- | --- | --- | --- | --- | --- | --- | --- | --- | --- | --- | --- | --- |
| CC(C)(O)CC[C@@H](O)[C@](C)(O)[C@H]1CC[C@@]2(O)C3=CC(=O)[C@@H]4C[C@@H](O)[C@@H](O)C[C@]4(C)[C@H]3CC[C@]12C [Compound 20E, 20-hydroxyecdysone, reference compound] | 1.0 | 382 ng·h/mL | 68 ng/mL | 30 min | comparably inhibit | 120% | increase | increases | increases | increase | increase |  |  |
| IGF-1: reference product (100 ng/ml) that stimulates protein synthesis |  |  |  |  |  |  |  |  |  |  |  | about 200% | 20% |
